Results reported in ChEMBL document CHEMBL4334495, “Design and Biological Evaluation of m-Xylene Thioether-Stapled Short Helical Peptides Targeting the HIV-1 gp41 Hexameric Coiled-Coil Fusion Complex” (J Med Chem, 2019).
Starred links: 1 amine or outer side, 2 acyl side, 3 side chain; linkers in the order of their positions; H or OH if unused. Positions of bridges follow the written chain, without caps; N, C: chain ends. Non-standard residues stand in square brackets, D forms with d. Residues, ends and D or L forms follow the SMILES beside them. ξ: configuration not given here. mXylylene = c1cc(C[*:1])cc(C[*:2])c1; ξhCys = NC(CCS)C(=O)O

How the values were obtained:
[1] = tested on: Human immunodeficiency virus 1; assay: (§1) Ratio of EC50 for antiviral activity against X4 tropic HIV-1 subtype-B 3B infected in human MT2 cells or CEMx174 5.25 M7 cells in absence of HP23 to EC50 for antiviral activity against X4 tropic HIV-1 subtype-B 3B infected in human MT2 cells or CEMx174 5.25 M7 cells at 24:1 compound to HP23 ratio; format: functional, HIV-1 group M
[2] = Metabolic stability in rat kidney homogenates assessed as parent compound remaining at 3 to 100 uM after 4 hrs by RP-HPLC analysis; format: ADME, tissue-based; settings: read-out: Stability
[3] = tested on: Human immunodeficiency virus 1; assay: Antiviral activity against T20 resistant HIV1 NL4-3 harboring with V38E/N42T mutant infected in human MT2 cells or CEMx174 5.25 M7 cells assessed as reduction in p24 Gag protein production at 600:1 compound to HP23 ratio measured at 4 days post-infection by ELISA; format: functional, organism-based
[4] = target: Envelope glycoprotein gp160 (Human immunodeficiency virus 1) (UniProt Q6QLK5); assay: Synergistic inhibition of HIV1 gp41-induced cell-cell fusion between viral envelope expressing human HL2/3 cells to CD4/CCR5 receptor expressing TZM-bl cells assessed as combination index at 4:1 compound to HP23 ratio incubated for 6 hrs by luciferase reporter gene assay
Envelope glycoprotein gp160 (Human immunodeficiency virus 1), sequence (Q6QLK5 1-814): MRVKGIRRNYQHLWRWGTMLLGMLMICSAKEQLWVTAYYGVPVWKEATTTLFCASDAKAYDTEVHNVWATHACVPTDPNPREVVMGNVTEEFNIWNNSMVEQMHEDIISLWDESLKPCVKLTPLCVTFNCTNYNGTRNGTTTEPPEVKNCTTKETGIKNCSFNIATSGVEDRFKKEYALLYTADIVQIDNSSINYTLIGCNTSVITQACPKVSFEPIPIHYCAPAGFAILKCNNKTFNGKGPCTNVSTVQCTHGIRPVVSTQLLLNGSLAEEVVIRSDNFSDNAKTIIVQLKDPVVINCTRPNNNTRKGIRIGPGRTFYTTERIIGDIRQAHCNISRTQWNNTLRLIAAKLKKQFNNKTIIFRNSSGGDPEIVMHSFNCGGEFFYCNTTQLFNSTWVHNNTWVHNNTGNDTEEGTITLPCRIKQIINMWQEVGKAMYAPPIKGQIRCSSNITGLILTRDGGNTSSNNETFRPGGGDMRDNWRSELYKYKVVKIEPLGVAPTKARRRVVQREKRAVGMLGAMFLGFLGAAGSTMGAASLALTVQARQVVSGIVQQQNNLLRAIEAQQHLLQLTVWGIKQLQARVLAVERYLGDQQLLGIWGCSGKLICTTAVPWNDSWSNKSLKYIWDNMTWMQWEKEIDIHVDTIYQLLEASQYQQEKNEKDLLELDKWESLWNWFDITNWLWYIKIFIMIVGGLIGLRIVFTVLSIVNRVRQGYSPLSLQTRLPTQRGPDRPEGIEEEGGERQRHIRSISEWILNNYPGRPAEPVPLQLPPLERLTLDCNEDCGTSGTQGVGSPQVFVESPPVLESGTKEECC

[5] = tested on: Human immunodeficiency virus 1; assay: Antiviral activity against X4 tropic HIV-1 subtype-B 3B infected in human MT2 cells or CEMx174 5.25 M7 cells assessed as reduction in p24 Gag protein production at 24:1 compound to HP23 ratio measured at 4 days post-infection by ELISA; format: functional, cell-based, HIV-1 group M; settings: Human immunodeficiency virus 1, 3B, 96 h
[6] = target: Envelope glycoprotein gp160 (Human immunodeficiency virus 1) (UniProt Q6QLK5); assay: Synergistic inhibition of HIV1 gp41-induced cell-cell fusion between viral envelope expressing human HL2/3 cells to CD4/CCR5 receptor expressing TZM-bl cells assessed as combination index at 2:1 compound to HP23 ratio incubated for 6 hrs by luciferase reporter gene assay
[7] = tested on: Human immunodeficiency virus 1; assay: (§2) Ratio of EC50 for antiviral activity against R5 tropic HIV-1 subtype-B Bal infected in human MT2 cells or CEMx174 5.25 M7 cells in absence of HP23 to EC50 for antiviral activity against R5 tropic HIV-1 subtype-B Bal infected in human MT2 cells or CEMx174 5.25 M7 cells at 24:1 compound to HP23 ratio; format: functional, HIV-1 group M
[8] = tested on: Human immunodeficiency virus 1; assay: Synergistic antiviral activity against HIV1 NL4-3 infected in human MT2 cells or CEMx174 5.25 M7 cells assessed as reduction in p24 Gag protein production by measuring combination index at 20:1 compound to HP23 ratio measured at 4 days post-infection by ELISA; format: functional
[9] = tested on: Human immunodeficiency virus 1; assay: Ratio of EC50 for antiviral activity against R5 tropic HIV-1 subtype-B Bal infected in human MT2 cells or CEMx174 5.25 M7 cells in absence of HP23 to EC50 for antiviral activity against R5 tropic HIV-1 subtype-B Bal infected in human MT2 cells or CEMx174 5.25 M7 cells at 6:1 compound to HP23 ratio; format: functional, HIV-1 group M
[10] = tested on: Human immunodeficiency virus 1; assay: (§3) Antiviral activity against T20 resistant HIV1 NL4-3 harboring with V38E/N42S mutant infected in human MT2 cells or CEMx174 5.25 M7 cells assessed as reduction in p24 Gag protein production at 7000:1 compound to HP23 ratio measured at 4 days post-infection by ELISA; format: functional, organism-based
[11] = tested on: Human immunodeficiency virus 1; assay: Synergistic antiviral activity against T2635 resistant HIV1 LAI harboring Q66R mutant infected in human MT2 cells or CEMx174 5.25 M7 cells assessed as reduction in p24 Gag protein production by measuring combination index at 12.5:1 compound ratio measured at 4 days post infection by ELISA; format: functional, M:B_Lai
[12] = tested on: Human immunodeficiency virus 1; assay: as §1, with “T2635 resistant HIV1 LAI harboring Q66R mutant” for “X4 tropic HIV-1 subtype-B 3B”, “to” for “to EC50 for”, “50:1 ratio of” for “24:1”, “HP23” for “HP23 ratio”; format: functional, M:B_Lai
[13] = tested on: Human immunodeficiency virus 1; assay: as §3, with “Synergistic antiviral” for “Antiviral”, “production by measuring combination index” for “production”, “14000:1” for “7000:1”; format: functional
[14] = tested on: Human immunodeficiency virus 1; assay: Antiviral activity against X4 tropic HIV-1 subtype-B 3B infected in human MT2 cells or CEMx174 5.25 M7 cells assessed as reduction in p24 Gag protein production at 6:1 ratio of hCS6ERE to compound measured at 4 days post-infection by ELISA; format: functional, cell-based, HIV-1 group M; settings: Human immunodeficiency virus 1, 3B, 96 h
[15] = target: Envelope glycoprotein gp160 (Human immunodeficiency virus 1) (UniProt Q6QLK5); assay: Ratio of EC50 for inhibition of HIV1 gp41-induced cell-cell fusion between viral envelope expressing human HL2/3 cells to CD4/CCR5 receptor expressing TZM-bl cells in absence of HP23 to EC50 for inhibition of HIV1 gp41-induced cell-cell fusion between viral envelope expressing human HL2/3 cells to CD4/CCR5 receptor expressing TZM-bl cells at 4:1 ratio of hCS6ERE to compound
[16] = tested on: Human immunodeficiency virus 1; assay: as §2, with “hCS6ERE” for “HP23”, “24:1 ratio of hCS6ERE to” for “24:1”, “compound” for “compound to HP23 ratio”; format: functional, HIV-1 group M
[17] = tested on: Human immunodeficiency virus 1; assay: (§4) Ratio of EC50 for antiviral activity against T20 resistant HIV1 NL4-3 harboring with V38E/N42T mutant infected in human MT2 cells or CEMx174 5.25 M7 cells in absence of hCS6ERE to EC50 for Antiviral activity against T20 resistant HIV1 NL4-3 harboring with V38E/N42T mutant infected in human MT2 cells or CEMx174 5.25 M7 cells at 150:1 hCS6ERE to compound ratio; format: functional
[18] = tested on: Human immunodeficiency virus 1; assay: as §4, with “T2635” for “T20”, “LAI” for “NL4-3”, “Q66R” for “with V38E/N42T”, “antiviral” for “EC50 for Antiviral”, “25:1 ratio of” for “150:1”, “compound” for “compound ratio”; format: functional, M:B_Lai
[19] = tested on: Human immunodeficiency virus 1; assay: Antiviral activity against T20 resistant HIV1 NL4-3 harboring with V38E/N42S mutant infected in human MT2 cells or CEMx174 5.25 M7 cells assessed as reduction in p24 Gag protein production at 7000:1 hCS6ERE to compound ratio measured at 4 days post-infection by ELISA; format: functional, organism-based
[20] = tested on: Human immunodeficiency virus 1; assay: Antiviral activity against R5 tropic HIV-1 subtype-B Bal infected in human MT2 cells or CEMx174 5.25 M7 cells assessed as reduction in p24 Gag protein production at 3:1 ratio of hCS6ERE to compound measured at 4 days post-infection by ELISA; format: functional, cell-based, HIV-1 group M; settings: Human immunodeficiency virus 1, Bal, 96 h
[21] = tested on: Human immunodeficiency virus 1; assay: Antiviral activity against T2635 resistant HIV1 LAI harboring Q66R mutant infected in human MT2 cells or CEMx174 5.25 M7 cells assessed as reduction in p24 Gag protein production at 25:1 ratio of hCS6ERE to compound measured at 4 days post infection by ELISA; format: functional, organism-based, M:B_Lai
[22] = tested on: Human immunodeficiency virus 1; assay: Antiviral activity against X4 tropic HIV-1 subtype-B 3B infected in human MT2 cells or CEMx174 5.25 M7 cells assessed as reduction in p24 Gag protein production at 12:1 ratio of hCS6ERE to compound measured at 4 days post-infection by ELISA; format: functional, cell-based, HIV-1 group M; settings: Human immunodeficiency virus 1, 3B, 96 h
[23] = tested on: Human immunodeficiency virus 1; assay: Antiviral activity against T2635 resistant HIV1 LAI harboring Q66R mutant infected in human MT2 cells or CEMx174 5.25 M7 cells assessed as reduction in p24 Gag protein production at 50:1 ratio of hCS6ERE to compound measured at 4 days post infection by ELISA; format: functional, organism-based, M:B_Lai

Compound: CC[C@H](C)[C@H](NC(C)=O)C(=O)N[C@@H](CCC(=O)O)C(=O)N[C@@H](CCC(=O)O)C(=O)N[C@@H](CC(C)C)C(=O)N[C@H](C(=O)NC1CCSCc2cccc(c2)CSCCC(C(=O)N[C@@H](CCC(N)=O)C(=O)N[C@@H](CCC(N)=O)C(=O)N[C@@H](CCCNC(=N)N)C(=O)N[C@@H](CCCCN)C(=O)N[C@@H](CC(N)=O)C(=O)N[C@@H](CCC(=O)O)C(=O)N[C@@H](CCC(=O)O)C(=O)N[C@@H](C)C(=O)N[C@@H](CC(C)C)C(=O)N[C@@H](CCCNC(=N)N)C(=O)N[C@@H](CCC(=O)O)C(=O)N[C@@H](CC(C)C)C(N)=O)NC(=O)[C@H](CCC(N)=O)NC(=O)[C@H](C)NC(=O)[C@H](C)NC1=O)[C@@H](C)CC (stereo partly drawn) (Ac-IEELI[ξhCys]AAQ[ξhCys]QQRKNEEALREL-NH2; linker 6-10 via mXylylene)
- Ratio EC50 [1]: 1.6
- remaining at 4 h [2]: 15.8%
- EC50 [3]: 468 nM
- CI [4]: 0.6
- EC50 [5]: 17.3 nM
- CI [6]: 0.8
- Ratio EC50 [7]: 2.6
- CI [8]: 0.8
- Ratio EC50 [9]: 3.8
- EC50 [10]: 2520 nM
- CI [11]: 0.7
- Ratio EC50 [12]: 3.3
- CI [13]: 0.6

Compound: H-EMTWEEWEKKIEEYTKKIEEILK-OH
- EC50 [14]: 1.3 nM
- Ratio EC50 [15]: 6.2
- Ratio EC50 [16]: 5.2
- Ratio EC50 [17]: 1.9
- Ratio EC50 [18]: 3.2
- EC50 [19]: 0.4 nM
- EC50 [20]: 1.4 nM
- EC50 [21]: 1.5 nM
- EC50 [22]: 0.9 nM
- EC50 [23]: 0.5 nM
